Measured values published in patent US11254663B2 (BRISTOL-MYERS SQUIBB COMPANY, priority 2019, dated 2022).

The compounds below were run against FXR (Homo sapiens (Human), UniProt Q96RI1) (assay: transient human FXR/Gal4-luciferase reporter assay). Conditions: not given.
FXR, sequence (Q96RI1 262-486): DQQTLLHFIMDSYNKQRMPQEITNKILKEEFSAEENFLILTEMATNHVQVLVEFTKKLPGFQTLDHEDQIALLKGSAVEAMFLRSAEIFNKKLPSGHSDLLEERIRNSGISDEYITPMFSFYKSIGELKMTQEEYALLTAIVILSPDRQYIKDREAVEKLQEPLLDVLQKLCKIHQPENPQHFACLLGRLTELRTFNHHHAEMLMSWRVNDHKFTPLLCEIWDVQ
Assay type: cell-based
In short: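 HEK293 cells stably carrying a 5×Gal4 response element–firefly luciferase reporter were transiently transfected overnight with a Gal4 DBD–human FXR LBD fusion plasmid. Compound was added in DMSO and cells were incubated overnight at 37 °C, 5% CO2. Activity was read as Steady-Glo luminescence.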
O=C(N(CC12CCC(c3noc(C(F)F)n3)(CC1)CC2)c1cccc(-c2cnc(C(F)(F)F)nc2)c1)C12CC(F)(C1)C2 [Example 464, N-((4-(5-(difluoromethyl)-1,2,4-oxadiazol-3-yl)bicyclo[2.2.2]octan-1-yl)methyl)-3-fluoro-N-(3-(2-(trifluoromethyl)pyrimidin-5-yl)phenyl)bicyclo[1.1.1]pentane-1-carboxamide] gave an EC50 of 654 nM. O=C(N(CC12CCC(c3ccc(C(F)(F)F)cn3)(CC1)CC2)c1cccc(-c2ccc(OC(F)F)cc2)c1)C12CC(F)(C1)C2 [Example 493, N-(4′-(difluoromethoxy)-[1,1′-biphenyl]-3-yl)-3-fluoro-N-((4-(5-(trifluoromethyl)pyridin-2-yl)bicyclo[2.2.2]octan-1-yl)methyl)bicyclo[1.1.1]pentane-1-carboxamide] showed an EC50 of 552 nM. Compound Cn1nc(C2CC2)cc1C12CCC(CN(C(=O)C34CC(F)(C3)C4)c3cc(-c4ccc(NS(C)(=O)=O)cc4)ccn3)(CC1)CC2 [Example 547, N-((4-(3-cyclopropyl-1-methyl-1H-pyrazol-5-yl)bicyclo[2.2.2]octan-1-yl)methyl)-3-fluoro-N-(4-(4-(methylsulfonamido)phenyl)pyridin-2-yl)bicyclo[1.1.1]pentane-1-carboxamide] has an EC50 of 251 nM. For CCOc1ncc(-c2cccc(N(CC34CCC(c5nc(C(C)(C)C)no5)(CC3)CC4)C(=O)[C@H]3C[C@@H](OC)C3)c2)cn1 [Example 502, (1S,3S)—N-((4-(3-(tert-butyl)-1,2,4-oxadiazol-5-yl)bicyclo[2.2.2]octan-1-yl)methyl)-N-(3-(2-ethoxypyrimidin-5-yl)phenyl)-3-methoxycyclobutane-1-carboxamide], the EC50 was 689 nM. For Cc1nc2ccc(-c3ccnc(N(CC45CCC(c6noc(C(C)(C)C)n6)(CC4)CC5)C(=O)C45CC(F)(C4)C5)c3)cc2s1 [Example 537, N-((4-(5-(tert-butyl)-1,2,4-oxadiazol-3-yl)bicyclo[2.2.2]octan-1-yl)methyl)-3-fluoro-N-(4-(2-methylbenzo[d]thiazol-6-yl)pyridin-2-yl)bicyclo[1.1.1]pentane-1-carboxamide], the EC50 was 67 nM.

Same assay, conditions: Gal4-hFXR fusion construct, HEK293 reporter cells; response relative to 8 μM GW-4064
Compound CC(C)(C#N)Oc1ccc(-c2cccc(N(CC34CCC(c5noc(C6(F)CC6)n5)(CC3)CC4)C(=O)C3CC(O)(C(F)(F)F)C3)c2)cc1 (stereo not drawn) [Example 583, (cis)-N-(4′-((2-cyanopropan-2-yl)oxy)-[1,1′-biphenyl]-3-yl)-N-((4-(5-(1-fluorocyclopropyl)-1,2,4-oxadiazol-3-yl)bicyclo[2.2.2]octan-1-yl)methyl)-3-hydroxy-3-(trifluoromethyl)cyclobutane-1-carboxamide] has an EC50 of 49 nM. Compound CC(C)(C)c1noc(C23CCC(CN(C(=O)C45CC(F)(C4)C5)c4cccc(-c5cnc(C(F)(F)F)nc5)c4)(CC2)CC3)n1 [Example 366, N-((4-(3-(tert-butyl)-1,2,4-oxadiazol-5-yl)bicyclo[2.2.2]octan-1-yl)methyl)-3-fluoro-N-(3-(2-(trifluoromethyl)pyrimidin-5-yl)phenyl)bicyclo[1.1.1]pentane-1-carboxamide] has an EC50 of 454 nM. In the case of CCOc1ncc(-c2cccc(N(CC34CCC(c5nc(C(C)C)no5)(CC3)CC4)C(=O)C34CC(F)(C3)C4)c2)cn1 [Example 374, N-(3-(2-ethoxypyrimidin-5-yl)phenyl)-3-fluoro-N-((4-(3-isopropyl-1,2,4-oxadiazol-5-yl)bicyclo[2.2.2]octan-1-yl)methyl)bicyclo[1.1.1]pentane-1-carboxamide], the EC50 is reported as 44 nM. Work on CC(F)(F)c1nc(C23CCC(CN(C(=O)C45CC(F)(C4)C5)c4ccc(F)c(N5CCC5)c4)(CC2)CC3)no1 [Example 575, N-(3-(azetidin-1-yl)-4-fluorophenyl)-N-((4-(5-(1,1-difluoroethyl)-1,2,4-oxadiazol-3-yl)bicyclo[2.2.2]octan-1-yl)methyl)-3-fluorobicyclo[1.1.1]pentane-1-carboxamide] yielded an EC50 of 410 nM.
